Some test systems named below: BT-549 breast; CAKI-1 renal; HCC-2998 colon; HCT-116 colon; HS 578T breast; IGROV1 ovarian; LOX IMVI melanoma; NCI-H460 lung; SF-539 CNS.
Common to all, as to test: NCI-60 cell line screen, 48 h

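These data come from cells grown in 96-well plates and exposed to compound for 48 hours at five concentrations. TGI: total growth inhibition.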

Turning to `OC1c2ccccc2[C@@H]2[C@H]1[C@@H](c1ccccc1)C1(Cc3ccccc3C1O)[C@H]2c1ccccc1` (stereo partly drawn), the TGI in the test on BT-549 breast came out at 28.6 µM; with CAKI-1 renal it was 22.8 µM; with HCC-2998 colon, 4.58 µM; with HCT-116 colon, 14.5 µM; in the test with HS 578T breast, 25.1 µM; with IGROV1 ovarian, 16.6 µM. Besides, the TGI was found to be 7.04 µM in the test with LOX IMVI melanoma, 10.2 µM with NCI-H460 lung and 26.6 µM in the test on SF-539 CNS.
With `CC(=O)Nc1ccc(Nc2cc(=O)n(C)c(=O)[nH]2)cc1`, the TGI in the test with BT-549 breast, in the test on CAKI-1 renal, in the test on HCC-2998 colon, in the test with HCT-116 colon, with HS 578T breast and in the test with IGROV1 ovarian was more than 100 µM each time. For the same molecule, the TGI in the test with LOX IMVI melanoma, in the test with NCI-H460 lung and with SF-539 CNS was more than 100 µM throughout.
Consider `CCOC(=O)c1cccc(NC(=O)CBr)c1`, for which the TGI in the test with BT-549 breast was 4.15 µM; in the test on CAKI-1 renal, 1.16 µM; in the test with HCC-2998 colon, 5.28 µM; in the test on HCT-116 colon, 1.88 µM; in the test with HS 578T breast, 5.28 µM; with IGROV1 ovarian, 2.77 µM. Besides, the TGI in the test on LOX IMVI melanoma turned out to be 0.407 µM; in the test with NCI-H460 lung, 3.46 µM; in the test with SF-539 CNS, 2.6 µM.
For `CC(C)Nc1[nH]c(C(=O)c2ccccc2)c(N)c1C(=S)Nc1ccccc1`, the TGI in the test on BT-549 breast was more than 100 µM; in the test on CAKI-1 renal it was more than 100 µM; with HCC-2998 colon, 46.2 µM; with HCT-116 colon, more than 100 µM; in the test on HS 578T breast it was more than 100 µM; in the test with IGROV1 ovarian, more than 100 µM. In addition, the TGI is 80.4 µM in the test with LOX IMVI melanoma, more than 100 µM in the test on NCI-H460 lung and more than 100 µM with SF-539 CNS.
Regarding `CCOC(=O)c1c(O)[nH]c(=O)c(CC)c1C`, the TGI in the test on BT-549 breast, in the test with CAKI-1 renal, with HCC-2998 colon, in the test on HCT-116 colon, in the test with HS 578T breast and in the test on IGROV1 ovarian was more than 100 µM throughout. Moreover, the TGI with LOX IMVI melanoma, in the test with NCI-H460 lung and in the test with SF-539 CNS was more than 100 µM throughout.
As to `CCOC(=O)C1(Cc2ccccc2)Cc2cc3c(cc2C1)CCC3`, the TGI in the test on BT-549 breast was 95.3 µM; in the test with CAKI-1 renal it was more than 100 µM; in the test with HCC-2998 colon, 52.8 µM; in the test with HCT-116 colon, more than 100 µM; in the test with HS 578T breast it was more than 100 µM; in the test with IGROV1 ovarian, more than 100 µM. The TGI is 43.9 µM with LOX IMVI melanoma, more than 100 µM in the test with NCI-H460 lung and more than 100 µM with SF-539 CNS.
As to `Nc1nc(Cl)c(C=O)c(NCC2(CO)CC(CCc3ccccc3)C2)n1` (stereo not drawn), the TGI with BT-549 breast turned out to be 27.5 µM; in the test with CAKI-1 renal, 3.14 µM; in the test with HCC-2998 colon it was 4.94 µM; in the test with HCT-116 colon, 27.3 µM; in the test on HS 578T breast, 84.6 µM; with IGROV1 ovarian it was 3.48 µM. The TGI in the test on LOX IMVI melanoma was 10.8 µM; in the test on NCI-H460 lung, 33.8 µM; in the test with SF-539 CNS, 17.8 µM.
Consider `Cc1cc(C)c(S(=O)(=O)N[C@@H](/C=C(\Br)CO)C(C)C)c(C)c1`, for which the TGI in the test on BT-549 breast is 85.2 µM; in the test on CAKI-1 renal, more than 100 µM; in the test with HCC-2998 colon, 53.7 µM; with HCT-116 colon it was more than 100 µM; in the test with HS 578T breast, 54.5 µM; with IGROV1 ovarian, more than 100 µM. Also, the results for the TGI in the test on LOX IMVI melanoma, in the test on NCI-H460 lung and with SF-539 CNS were 36.3 µM, 85.4 µM and more than 100 µM, respectively.
In the case of `CC[C@@H](CCCC[C@@H]1CC[C@H]2CC(=O)C[C@@H]12)OC`, the TGI with BT-549 breast, in the test with CAKI-1 renal, in the test on HCC-2998 colon, in the test on HCT-116 colon, in the test with HS 578T breast and with IGROV1 ovarian was more than 100 µM each time. Moreover, the TGI in the test on LOX IMVI melanoma, in the test on NCI-H460 lung and in the test on SF-539 CNS was more than 100 µM throughout.
As for `CSc1c(C(=O)Nc2ccc(C)cc2)c(N)nn1-c1ccccc1`, the TGI with BT-549 breast was more than 100 µM; with CAKI-1 renal, 49.9 µM; in the test with HCC-2998 colon, more than 100 µM; with HCT-116 colon, more than 100 µM; in the test with HS 578T breast, more than 100 µM; in the test on IGROV1 ovarian it was more than 100 µM. For the same molecule, the TGI was more than 100 µM with LOX IMVI melanoma, 42.9 µM in the test on NCI-H460 lung and 92.1 µM with SF-539 CNS.
With `CC(=O)Oc1ccc(N2C(=O)C3c4[nH]c5ccccc5c4C4CCC(C(C)(C)C)CC4C3C2=O)cc1` (stereo not drawn), the TGI with BT-549 breast was 14.9 µM; in the test with CAKI-1 renal, 16 µM; in the test on HCC-2998 colon it was 5.14 µM; with HCT-116 colon, 4.93 µM; in the test with HS 578T breast it was 8.82 µM; with IGROV1 ovarian it was 19.9 µM. For the same molecule, the TGI with LOX IMVI melanoma was determined as 14.3 µM; in the test with NCI-H460 lung, 5.83 µM; with SF-539 CNS, 18.3 µM.
Take `CSC(SC)=C1C(=O)NN=C1C`: the TGI in the test on BT-549 breast, in the test with CAKI-1 renal, in the test with HCC-2998 colon, with HCT-116 colon, in the test on HS 578T breast and with IGROV1 ovarian was more than 100 µM each time. Also, the TGI in the test with LOX IMVI melanoma, in the test with NCI-H460 lung and with SF-539 CNS was more than 100 µM in each case.
As for `CNNC1=NS(=O)(=O)c2cc(C)c(Cl)cc2S1`, the TGI with BT-549 breast, in the test on CAKI-1 renal, in the test with HCC-2998 colon, in the test with HCT-116 colon, in the test with HS 578T breast and in the test with IGROV1 ovarian was more than 10 µM in each case. Besides, the TGI in the test with LOX IMVI melanoma, in the test with NCI-H460 lung and in the test on SF-539 CNS was more than 10 µM each time.
For the molecule `CC(=O)OCCC1c2ccccc2-n2nc(-c3ccccc3)c(O)c21` (stereo not drawn), the TGI with BT-549 breast came out at 33.3 µM; in the test on CAKI-1 renal, 33.6 µM; in the test on HCC-2998 colon, 56 µM; in the test with HCT-116 colon it was 30.4 µM; in the test with HS 578T breast, 54.9 µM; in the test on LOX IMVI melanoma it was 27.4 µM. Also, the TGI turned out to be 28.3 µM with NCI-H460 lung and 44.7 µM in the test with SF-539 CNS.
Turning to `O=C(c1ccc(Cl)cc1Cl)N(Cc1cccnc1)C(=S)N(Cc1cccnc1)C(=O)c1ccc(Cl)cc1Cl`, the TGI in the test on BT-549 breast stood at 14.8 µM; in the test with CAKI-1 renal, 34.4 µM; in the test on HCC-2998 colon it was 8.97 µM; in the test on HCT-116 colon it was 6.19 µM; in the test on HS 578T breast, 66.4 µM; in the test with LOX IMVI melanoma it was 16.7 µM. Also, the TGI in the test with NCI-H460 lung was 39.2 µM; with SF-539 CNS it was 4.43 µM.

The values are drawn from PubChem BioAssay (NCI).
